US20220372014A1, “NEUROPROTECTIVE COMPOUNDS AND METHODS OF USE THEREOF” (The Johns Hopkins University, priority 2019, published 2022)

What was measured:
MIF = target: T1, MIF (Homo sapiens, UniProt P14174); assay: Nuclease assay of Example 3 (MIF inhibitory activity, Table 4); assay type: biochemical; parameters: (%) inhibition of MIF nuclease activity: concentration or dose not given beside the values; conditions: for (%) inhibition of MIF nuclease activity: nuclease assay of Example 3
T1 sequence (P14174 1-115): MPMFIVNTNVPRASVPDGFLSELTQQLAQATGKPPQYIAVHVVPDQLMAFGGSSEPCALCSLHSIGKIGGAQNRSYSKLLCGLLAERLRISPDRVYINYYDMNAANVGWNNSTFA
Summary of the method: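 Human genomic DNA (200 ng), pcDNA (200 ng) or PS^30-type substrates (1 μM) were incubated with MIF (0.25-8 μM final) in 10 mM Tris-HCl pH 7.0, 10 mM MgCl2, 1 mM DTT at 37 °C for 1 h (pcDNA, small substrates) or 4 h (genomic DNA). Cleavage was assessed by agarose or PAGE electrophoresis with EtBr staining and chemiluminescent detection of biotin-labelled DNA.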

[1] = tested on: HeLa cells or neuronal cells; assay: Cell death assay of Example 3 (MNNG, alamarBlue; protection against parthanatos, Table 4); assay type: cell-based; conditions: 1 μM test compound; for (%) inhibition of cell death: MNNG-induced cell death, alamarBlue
Summary of the method: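 HeLa or neuronal cells (1×10^4/well) were pretreated 1 h at 37° C with 1 μM compound, exposed to MNNG for 15 min, washed, then re-incubated 18 h with 1 μM compound. Viability was read by alamarBlue fluorescence (ex 560/em 590 nm). Cell death was expressed relative to control wells.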

Row | Compound | (%) inhibition of MIF nuclease activity (MIF) [%] | (%) inhibition of cell death [1] [%] | MIF nuclease activity (MIF) | protection against parthanatos (cell death) [1]
1 | COc1cc(CC[C@H]2OC(=O)[C@@H]3CCCCN3C(=O)C(=O)C(C)(C)COC(=O)C=CCCN(C)C(=O)[C@@H]3CCCN3C(=O)[C@H](COC(C)(C)C)N(C)C(=O)C(c3ccccc3)NC(=O)[C@H](C)N(C)C(=O)COc3cccc2c3)cc(O)c1OC (some centres unmarked) [compound 120] | 7.1 | 45.8 |  | 
2 | COc1cc(OC)c(OC)cc1CC[C@H]1OC(=O)[C@@H]2CCCCN2C(=O)C(=O)C(C)(C)COC(=O)C=CCCN(C)C(=O)[C@@H]2CCCN2C(=O)[C@H](COC(C)(C)C)N(C)C(=O)C(c2ccccc2)NC(=O)[C@H](C)N(C)C(=O)COc2cccc1c2 (some centres unmarked) [compound 122] | 10.7 | 64.3 |  | 
3 | COc1ccc(OC)c(OC)c1CC[C@H]1OC(=O)[C@@H]2CCCCN2C(=O)C(=O)C(C)(C)COC(=O)C=CCCN(C)C(=O)[C@@H]2CCCN2C(=O)[C@H](COC(C)(C)C)N(C)C(=O)C(c2ccccc2)NC(=O)[C@H](C)N(C)C(=O)COc2cccc1c2 (some centres unmarked) [compound 123] | −5.1 | 82.4 | do not inhibit MIF nuclease activity | protect against parthanatos
4 | COc1ccc(CC[C@H]2OC(=O)[C@@H]3CCCCN3C(=O)C(=O)C(C)(C)COC(=O)C=CCCN(C)C(=O)[C@@H]3CCCN3C(=O)[C@H](COC(C)(C)C)N(C)C(=O)C(c3ccccc3)NC(=O)[C@H](C)N(C)C(=O)COc3cccc2c3)c(OC)c1OC (some centres unmarked) [compound 124] | −2.7 | 55.9 |  | 
5 | COc1ccc(CC[C@H]2OC(=O)[C@@H]3CCCCN3C(=O)C(=O)C(C)(C)COC(=O)C=CCCN(C)C(=O)[C@@H]3CCCN3C(=O)[C@H](COC(C)(C)C)N(C)C(=O)C(c3ccccc3)NC(=O)[C@H](C)N(C)C(=O)COc3cccc2c3F)cc1OC (some centres unmarked) [compound 125] | 2.4 | 63.4 | do not inhibit MIF nuclease activity | protect against parthanatos
6 | COc1ccc(CC[C@H]2OC(=O)[C@@H]3CCCCN3C(=O)C(=O)C(C)(C)COC(=O)C=CCCN(C)C(=O)[C@@H]3CCCN3C(=O)[C@H](COC(C)(C)C)N(C)C(=O)C(c3ccccc3)NC(=O)[C@H](C)N(C)C(=O)COc3cncc2c3)cc1OC (some centres unmarked) [compound 126] | 6.7 | 46.8 |  | 
7 | COc1ccc(CC[C@H]2OC(=O)[C@@H]3CN(C(=O)OCC4c5ccccc5-c5ccccc54)CCN3C(=O)C(=O)C(C)(C)COC(=O)C=CCCN(C)C(=O)[C@@H]3CCCN3C(=O)[C@H](COC(C)(C)C)N(C)C(=O)C(c3ccccc3)NC(=O)[C@H](C)N(C)C(=O)COc3cccc2c3)cc1OC (some centres unmarked) [compound 127] | 5.0 | 46.4 |  | 
8 | COc1ccc(CC[C@H]2OC(=O)[C@@H]3CNCCN3C(=O)C(=O)C(C)(C)COC(=O)C=CCCN(C)C(=O)[C@@H]3CCCN3C(=O)[C@H](COC(C)(C)C)N(C)C(=O)C(c3ccccc3)NC(=O)[C@H](C)N(C)C(=O)COc3cccc2c3)cc1OC (some centres unmarked) [compound 128] | 11.0 | 47.4 |  | 
9 | C=CC(=O)OCC(C)(C)C(=O)C(=O)N1CCCC[C@H]1C(=O)O[C@H](CCc1ccc(OC)c(OC)c1)c1cncc(OCC(=O)N(C)[C@@H](C)C(=O)NC(C(=O)N(C)[C@@H](COC(C)(C)C)C(=O)N2CCC[C@H]2C(=O)N(C)CC/C=C\CCO)c2ccccc2)c1 (some centres unmarked) [compound 129] | 29.5 | 43.0 |  | 
10 | COc1ccc(CC[C@H]2OC(=O)[C@@H]3CCCCN3C(=O)C(=O)C(C)(C)COC(=O)C=CCCN(C)C(=O)[C@@H]3CCCN3C(=O)[C@H](COC(C)(C)C)N(C)C(=O)C(c3ccccc3)N(C)C(=O)[C@H](C)NC(=O)COc3cccc2c3)cc1OC (some centres unmarked) [compound 137] | 9.4 | 44.5 |  | 
11 | COc1ccc(CC[C@H]2OC(=O)[C@@H]3CCCCN3C(=O)C(=O)C(C)(C)COC(=O)C=CCCN(C)C(=O)[C@@H]3CCCN3C(=O)[C@H](COC(C)(C)C)N(C)C(=O)[C@H](Cc3ccccc3)N(C)C(=O)[C@H](C)NC(=O)COc3cccc2c3)cc1OC [compound 138] | −4.8 | 47.0 |  | 
12 | COc1ccc(CC[C@H]2OC(=O)[C@@H]3CCCCN3C(=O)C(=O)C(C)(C)COC(=O)C=CCCN(C)C(=O)[C@@H]3CCCN3C(=O)[C@H](COC(C)(C)C)N(C)C(=O)[C@H](COC(C)(C)C)NC(=O)[C@H](C)N(C)C(=O)COc3cccc2c3)cc1OC [compound 140] | 0.0 | 51.0 |  | 
13 | COc1ccc(CC[C@H]2OC(=O)[C@@H]3CCCCN3C(=O)C(=O)C(C)(C)COC(=O)C=CCCN(C)C(=O)[C@@H]3CCCN3C(=O)[C@H](COC(C)(C)C)N(C)C(=O)[C@H](Cc3ccc(O)cc3)N(C)C(=O)[C@H](C)NC(=O)COc3cccc2c3)cc1OC [compound 141] | 9.2 | 46.8 |  | 
14 | COc1ccc(CC[C@H]2OC(=O)[C@@H]3CCCCN3C(=O)C(=O)C(C)(C)COC(=O)C=CCCN(C)C(=O)[C@@H]3CCCN3C(=O)[C@H](COC(C)(C)C)N(C)C(=O)C(Cc3ccc(O)cc3)NC(=O)[C@H](C)NC(=O)COc3cccc2c3)cc1OC (some centres unmarked) [compound 142] | −4.7 | 42.5 |  | 
15 | COc1ccc(CC[C@H]2OC(=O)[C@@H]3CCCCN3C(=O)C(=O)C(C)(C)COC(=O)C=CCCN(C)C(=O)[C@@H]3CCCN3C(=O)[C@H](COC(C)(C)C)N(C)C(=O)[C@H](Cc3ccc(C#N)cc3)NC(=O)[C@H](C)NC(=O)COc3cccc2c3)cc1OC [compound 143] | −1.1 | 46.7 |  | 
16 | COc1ccc(CC[C@H]2OC(=O)[C@@H]3CCCCN3C(=O)C(=O)C(C)(C)COC(=O)C=CCCN(C)C(=O)[C@@H]3CCCN3C(=O)[C@H](COC(C)(C)C)N(C)C(=O)C(c3ccccc3)NC(=O)C(c3ccccc3)N(C)C(=O)COc3cccc2c3)cc1OC (some centres unmarked) [compound 144] | 10.7 | 51.3 |  | 
17 | COc1ccc(CC[C@H]2OC(=O)[C@@H]3CCCCN3C(=O)C(=O)C(C)(C)COC(=O)C=CCCN(C)C(=O)[C@@H]3CCCN3C(=O)[C@H](COC(C)(C)C)N(C)C(=O)C(c3ccccc3)NC(=O)[C@H](Cc3ccccc3)N(C)C(=O)COc3cccc2c3)cc1OC (some centres unmarked) [compound 145] | 6.7 | 46.6 |  | 
18 | COc1ccc(CC[C@H]2OC(=O)[C@@H]3CCCCN3C(=O)C(=O)C(C)(C)COC(=O)C=CCCN(C)C(=O)[C@@H]3CCCN3C(=O)[C@H](COC(C)(C)C)N(C)C(=O)C(c3ccccc3)NC(=O)[C@H](COC(C)(C)C)N(C)C(=O)COc3cccc2c3)cc1OC (some centres unmarked) [compound 146] | −1.1 | 43.9 |  | 
19 | COc1ccc(CC[C@H]2OC(=O)[C@@H]3CCCCN3C(=O)C(=O)C(C)(C)COC(=O)C=CCCN(C)C(=O)[C@@H]3CCCN3C(=O)[C@H](COC(C)(C)C)N(C)C(=O)C(c3ccccc3)NC(=O)[C@H](C(C)CC(C)(C)C)N(C)C(=O)COc3cccc2c3)cc1OC (some centres unmarked) [compound 147] | −4.7 | 46.2 |  | 
20 | COc1ccc(CC[C@H]2OC(=O)[C@@H]3CCCCN3C(=O)C(=O)C(C)(C)COC(=O)C=CCCN(C)C(=O)[C@@H]3CCCN3C(=O)[C@H](COC(C)(C)C)N(C)C(=O)C(c3ccccc3)NC(=O)[C@H](Cc3ccc(O)cc3)N(C)C(=O)COc3cccc2c3)cc1OC (some centres unmarked) [compound 148] | 12.0 | 50.7 |  | 
21 | C[C@H]1C(=O)NC(c2ccccc2)C(=O)N(C)[C@@H](COC(C)(C)C)C(=O)N2CCC[C@H]2C(=O)N(C)CCC=CC(=O)OCC(C)(C)C(=O)C(=O)N2CCCC[C@H]2C(=O)O[C@H](CCc2ccccc2)c2cccc(c2)OCC(=O)N1C (some centres unmarked) [compound 149] | −11.8 | 51.0 |  | 
22 | COc1cccc(CC[C@H]2OC(=O)[C@@H]3CCCCN3C(=O)C(=O)C(C)(C)COC(=O)C=CCCN(C)C(=O)[C@@H]3CCCN3C(=O)[C@H](COC(C)(C)C)N(C)C(=O)C(c3ccccc3)NC(=O)[C@H](C)N(C)C(=O)COc3cccc2c3)c1 (some centres unmarked) [compound 150] | 10.7 | 50.8 |  | 
23 | COc1ccc(CC[C@H]2OC(=O)[C@@H]3CCCCN3C(=O)C(=O)C(C)(C)COC(=O)C=CCCN(C)C(=O)[C@@H]3CCCN3C(=O)[C@H](COC(C)(C)C)N(C)C(=O)C(c3ccccc3)NC(=O)[C@H](C)N(C)C(=O)COc3cccc2c3)cc1 (some centres unmarked) [compound 151] | 6.8 | 45.7 |  | 
